Source: ChEMBL document CHEMBL1201862, “PubChem BioAssay data set” (2004)
Activity calls are given as the source filed them.

What was measured:
[1] = Luminescence-based counterscreen assay for KLF5 inhibitors: dose response cell-based high throughput screening assay to identify cytotoxic compounds using the IEC-6 intestinal epithelial cell line. [Related pubchem assays: 1700 (Primary screen.), 1834 (Confirmation screen.), 1858 (Summary AID.), 1905 (Counterscreen.)]; type: functional
[2] = Luminescence Cell-Based Dose Retest to Confirm Inhibitors of Cancer Stem Cells. [Related pubchem assays (depositor defined):AID2717, AID2721]; type: functional; conditions: Homo sapiens
[3] = test system: DLD-1; assay: DLD-1 cell viability reduction – luminescence, round 1, cytotoxicity control for KLF5 inhibitor project, late-stage follow-up (AID 485338); type: functional, cell-based; conditions: Homo sapiens
[4] = test system: DLD-1; assay: KLF5 protein lowering by immunoblot – western blot, chemiluminescence, DLD-1 cells, titration, orthogonal assay for KLF5 inhibitor project, late-stage follow-up (AID 485336); type: functional, cell-based; conditions: Homo sapiens
[5] = viability of uninfected HEp-2 cells – cell-based, HTS, cytotoxicity control for RSV inhibitor project, dose response (AID 2410); type: functional; conditions: human respiratory syncytial virus
[6] = viability of HCT116 lacking mutant beta-catenin – cell-based, human colon tumor, dose response (AID 1045); type: functional;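 note: HCT116 colon tumor cells with beta catenin knocked out; cells exposed to compound for 60 hours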
[7] = test system: Streptococcus sp. 'group A'; assay: Streptococcus pyogenes SK(-)GAS viability under kanamycin – luminescence, BacTiterGlo, confirmation, counter-screen for streptokinase expression inhibitor project, dose response (AID 1900); type: functional, organism-based
[8] = molecular target: T1, SUMO-activating enzyme (Homo sapiens, UniProt Q9UBT2); assay: blockers of UBC9-mediated SUMO conjugation – biochemical, AlphaScreen, SUMOylation inhibitor project, confirmation (AID 2018); type: functional
[9] = molecular target: T1, SUMO-activating enzyme; assay: blockers of SAE1/SAE2–UBC9 SUMO transfer – biochemical, HTRF, uHTS, primary screen (AID 2006); type: protein-complex assay
[10] = test system: Streptococcus; assay: GAS UMAA2166 growth inhibition – luminescence, BacTiterGlo, counter-screen for streptokinase expression inhibitor project, dose response (AID 1915); type: functional, organism-based;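 note: potency for reduction of bacterial viability or growth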
[11] = molecular target: T2, Carboxy-terminal domain RNA polymerase II polypeptide A small phosphatase 1 (Homo sapiens, UniProt Q9GZU7); assay: CTDSP1 inhibitors, concentration-response, biochemical, absorbance readout, ultra-high-throughput screen actives (AID 540297); type: functional
T2 sequence (Q9GZU7 whole entry): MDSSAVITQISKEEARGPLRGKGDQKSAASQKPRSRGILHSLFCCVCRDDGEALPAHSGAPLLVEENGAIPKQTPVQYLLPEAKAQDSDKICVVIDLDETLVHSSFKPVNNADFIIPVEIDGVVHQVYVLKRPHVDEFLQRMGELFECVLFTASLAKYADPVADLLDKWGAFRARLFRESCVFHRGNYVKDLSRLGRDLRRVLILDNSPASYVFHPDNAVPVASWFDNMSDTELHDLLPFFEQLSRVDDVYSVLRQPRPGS

[12] = molecular target: T3, Streptokinase A (Streptococcus pyogenes serotype M1, UniProt P10520); assay: viability-normalized secreted streptokinase activity reduction – plasminogen activation absorbance, OD405, dose response (AID 1914); type: functional, Streptococcus pyogenes M1 GAS;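 note: secreted streptokinase activity via plasminogen activation per viability signal from cell pellet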
T3 sequence (P10520 whole entry): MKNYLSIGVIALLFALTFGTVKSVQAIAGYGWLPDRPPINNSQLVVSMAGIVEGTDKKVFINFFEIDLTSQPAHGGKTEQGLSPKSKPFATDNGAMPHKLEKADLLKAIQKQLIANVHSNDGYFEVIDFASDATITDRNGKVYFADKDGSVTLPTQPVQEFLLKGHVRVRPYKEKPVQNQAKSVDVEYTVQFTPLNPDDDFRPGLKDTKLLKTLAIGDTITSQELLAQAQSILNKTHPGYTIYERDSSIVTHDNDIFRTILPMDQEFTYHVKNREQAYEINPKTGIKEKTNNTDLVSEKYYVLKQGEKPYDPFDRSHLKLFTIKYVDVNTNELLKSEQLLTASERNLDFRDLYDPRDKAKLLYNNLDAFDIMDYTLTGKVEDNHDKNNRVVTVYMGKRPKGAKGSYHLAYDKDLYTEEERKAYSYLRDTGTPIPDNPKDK

[13] = viability of PTEN-deleted HCT116 cells – cell-based, HCT116 PTEN knockout, dose response (AID 1047); type: functional;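 note: HCT116 colon tumor cells with PTEN knocked out; cells exposed to compound for 60 hours before readout; potency for loss of cell viability measured by luminescence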
[14] = molecular target: T4, Cannabinoid receptor 2 (Homo sapiens, UniProt P34972); assay: SAR analysis of antagonists of the Cannabinoid Receptor 2 using an Image-Based Assay. [Related pubchem assays (depositor defined):AID2013, AID2026]; type: functional
[15] = molecular target: T5, Cannabinoid receptor 1 (Homo sapiens, UniProt P21554); assay: SAR analysis of antagonists of the Cannabinoid Receptor 1 using an Image-Based Assay - Set 2. [Related pubchem assays (depositor defined):AID2013, AID2026]; type: functional
[16] = molecular target: T5, Cannabinoid receptor 1; assay: SAR analysis of agonists of the Cannabinoid Receptor 1 using an Image-Based Assay - Set 2. [Related pubchem assays (depositor defined):AID2013, AID2026]; type: functional
[17] = molecular target: T6, G-protein coupled receptor 55 (Homo sapiens, UniProt Q9Y2T6); assay: inhibition of LPI-stimulated GPR55 beta-arrestin translocation – imaging, U2OS, beta-arrestin-GFP, LPI agonist, primary screen (AID 2013); type: functional;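 note: antagonist potency measured as reduced agonist-driven arrestin aggregation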
[18] = molecular target: T6, G-protein coupled receptor 55; assay: blockade of LPI-induced GPR55 arrestin translocation – imaging, U2OS, beta-arrestin-GFP, LPI agonist, set 2, SAR follow-up (AID 2820); type: functional
[19] = molecular target: T7, G-protein coupled receptor 35 (Homo sapiens, UniProt Q9HC97); assay: SAR analysis of Antagonists of the GPR35 Receptor using an Image-Based Assay - Set 3. [Related pubchem assays (depositor defined):AID2013, AID2026]; type: functional
[20] = molecular target: T4, Cannabinoid receptor 2; assay: SAR analysis of agonists of the Cannabinoid Receptor 2 using an Image-Based Assay. [Related pubchem assays (depositor defined):AID2013, AID2026]; type: functional
[21] = molecular target: T7, G-protein coupled receptor 35; assay: SAR analysis of Agonists of the GPR35 Receptor using an Image-Based Assay - Set 2. [Related pubchem assays (depositor defined):AID2013, AID2026]; type: functional
[22] = molecular target: T8, Coagulation factor XII (Homo sapiens, UniProt P00748); assay: Factor XIIa Dose Response Confirmation from Single Well HTS. [Related pubchem assays (depositor defined):AID701]; type: functional
T8 sequence (P00748 whole entry): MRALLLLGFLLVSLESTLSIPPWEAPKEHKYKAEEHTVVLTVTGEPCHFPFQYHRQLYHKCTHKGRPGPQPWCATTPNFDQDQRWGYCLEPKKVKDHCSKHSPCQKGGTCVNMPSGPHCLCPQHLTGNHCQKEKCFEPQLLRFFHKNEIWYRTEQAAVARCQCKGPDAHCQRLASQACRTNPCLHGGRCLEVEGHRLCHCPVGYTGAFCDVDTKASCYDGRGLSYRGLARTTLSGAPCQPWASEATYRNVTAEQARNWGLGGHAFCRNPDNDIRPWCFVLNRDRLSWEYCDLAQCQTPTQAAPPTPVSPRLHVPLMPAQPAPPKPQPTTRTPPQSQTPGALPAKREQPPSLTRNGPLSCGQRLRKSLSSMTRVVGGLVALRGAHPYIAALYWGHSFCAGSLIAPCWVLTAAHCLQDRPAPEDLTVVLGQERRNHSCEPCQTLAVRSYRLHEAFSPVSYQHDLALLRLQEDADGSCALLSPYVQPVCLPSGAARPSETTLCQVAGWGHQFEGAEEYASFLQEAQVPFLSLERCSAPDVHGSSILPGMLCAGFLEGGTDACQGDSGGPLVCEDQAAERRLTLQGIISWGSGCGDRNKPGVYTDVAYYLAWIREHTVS

[23] = molecular target: T9, Intestinal-type alkaline phosphatase (Homo sapiens, UniProt P09923); assay: human intestinal alkaline phosphatase activators, dose response, biochemical, luminescence, uHTS hits (AID 463120); type: functional
[24] = molecular target: T9, Intestinal-type alkaline phosphatase; assay: Dose Response confirmation of uHTS hits from a small molecule inhibitors of human intestinal alkaline phosphatase via a luminescent assay. [Related pubchem assays (depositor defined):AID2544, AID2574]; type: functional
[25] = molecular target: T10, Hexokinase HKDC1 (Homo sapiens, UniProt Q2TB90); assay: activation of HKDC1 glucose phosphorylation – biochemical, W721R variant, dose response (AID 504730); type: functional
T10 sequence (Q2TB90 whole entry): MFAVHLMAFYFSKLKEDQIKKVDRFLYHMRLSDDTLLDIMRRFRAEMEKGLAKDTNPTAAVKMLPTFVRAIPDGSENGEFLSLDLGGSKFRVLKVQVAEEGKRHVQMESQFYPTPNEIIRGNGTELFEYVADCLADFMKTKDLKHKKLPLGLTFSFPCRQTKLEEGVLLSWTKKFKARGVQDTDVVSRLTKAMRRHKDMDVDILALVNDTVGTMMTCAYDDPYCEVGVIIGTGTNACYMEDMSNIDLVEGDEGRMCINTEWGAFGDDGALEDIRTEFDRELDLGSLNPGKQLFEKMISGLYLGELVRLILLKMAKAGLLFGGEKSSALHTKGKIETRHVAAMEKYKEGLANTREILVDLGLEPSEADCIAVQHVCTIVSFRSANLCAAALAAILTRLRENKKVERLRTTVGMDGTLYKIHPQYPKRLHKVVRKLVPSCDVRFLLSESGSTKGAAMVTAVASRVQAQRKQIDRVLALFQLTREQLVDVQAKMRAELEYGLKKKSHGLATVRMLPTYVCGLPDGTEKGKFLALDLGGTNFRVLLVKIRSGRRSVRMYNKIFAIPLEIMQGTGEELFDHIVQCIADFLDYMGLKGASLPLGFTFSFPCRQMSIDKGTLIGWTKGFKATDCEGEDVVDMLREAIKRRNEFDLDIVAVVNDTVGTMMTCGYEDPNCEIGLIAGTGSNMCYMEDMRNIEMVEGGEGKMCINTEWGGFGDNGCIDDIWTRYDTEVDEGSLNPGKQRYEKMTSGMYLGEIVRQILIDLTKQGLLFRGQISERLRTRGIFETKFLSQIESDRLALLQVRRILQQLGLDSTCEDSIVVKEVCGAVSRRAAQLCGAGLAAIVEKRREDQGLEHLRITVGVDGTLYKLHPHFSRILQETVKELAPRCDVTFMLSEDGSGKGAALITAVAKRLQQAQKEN

[26] = molecular target: Hexokinase-1 (Homo sapiens, UniProt P19367); assay: HK1 enzyme activation by HKDC1 hits – biochemical, selectivity assay for HKDC1 activator project, dose response (AID 504762); type: functional
[27] = molecular target: T11, Protein Tat (Human immunodeficiency virus type 1 group M subtype B (isolate HXB2)(HIV-1), UniProt P04608); type: functional;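 note: tat binding to TAR RNA read out by fluorescence polarization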
T11 sequence (P04608 whole entry): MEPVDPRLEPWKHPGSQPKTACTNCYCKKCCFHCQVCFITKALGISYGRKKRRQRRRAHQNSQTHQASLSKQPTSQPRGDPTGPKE

[28] = molecular target: T12, Type-1 angiotensin II receptor (Homo sapiens, UniProt P30556); assay: agonist activity at AGTR1 – cell-based, uHTS hits, selectivity assay for APJ receptor agonist project, dose response (AID 488865); type: functional;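 note: beta-arrestin recruitment to AT1 measured by enzyme fragment complementation luminescence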
T12 sequence (P30556 whole entry): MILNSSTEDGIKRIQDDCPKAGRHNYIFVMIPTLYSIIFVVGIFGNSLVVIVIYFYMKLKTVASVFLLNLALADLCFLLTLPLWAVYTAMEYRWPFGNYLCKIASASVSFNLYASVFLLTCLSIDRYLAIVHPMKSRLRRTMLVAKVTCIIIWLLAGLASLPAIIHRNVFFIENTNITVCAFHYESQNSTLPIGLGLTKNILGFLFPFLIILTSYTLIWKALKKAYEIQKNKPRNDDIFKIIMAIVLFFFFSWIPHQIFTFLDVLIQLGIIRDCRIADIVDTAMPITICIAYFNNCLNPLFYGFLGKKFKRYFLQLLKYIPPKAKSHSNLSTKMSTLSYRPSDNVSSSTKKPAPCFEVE
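Throughout, for AC50: cells exposed to compound for roughly 70 hours or longer before luminescence read.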

T7 sequence (Q9HC97 whole entry): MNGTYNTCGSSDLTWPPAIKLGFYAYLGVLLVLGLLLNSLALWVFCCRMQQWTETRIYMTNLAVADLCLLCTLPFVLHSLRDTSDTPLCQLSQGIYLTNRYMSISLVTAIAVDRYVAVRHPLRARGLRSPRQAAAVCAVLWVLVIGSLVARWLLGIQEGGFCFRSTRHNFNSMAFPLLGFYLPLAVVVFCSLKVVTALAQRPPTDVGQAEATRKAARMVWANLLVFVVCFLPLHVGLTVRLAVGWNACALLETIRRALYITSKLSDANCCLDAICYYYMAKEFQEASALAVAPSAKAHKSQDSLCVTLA
T1 sequence (Q9UBE0 whole entry): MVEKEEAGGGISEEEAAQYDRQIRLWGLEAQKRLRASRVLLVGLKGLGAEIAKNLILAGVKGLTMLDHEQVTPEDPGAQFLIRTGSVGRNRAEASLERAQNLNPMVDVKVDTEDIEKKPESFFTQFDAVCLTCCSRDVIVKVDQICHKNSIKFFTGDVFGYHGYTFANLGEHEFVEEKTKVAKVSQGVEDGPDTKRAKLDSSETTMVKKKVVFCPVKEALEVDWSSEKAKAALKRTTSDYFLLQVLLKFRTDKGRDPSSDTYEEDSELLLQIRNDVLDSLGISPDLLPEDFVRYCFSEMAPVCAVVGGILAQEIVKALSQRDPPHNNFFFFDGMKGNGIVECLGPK
T1 sequence (Q9UBT2 whole entry): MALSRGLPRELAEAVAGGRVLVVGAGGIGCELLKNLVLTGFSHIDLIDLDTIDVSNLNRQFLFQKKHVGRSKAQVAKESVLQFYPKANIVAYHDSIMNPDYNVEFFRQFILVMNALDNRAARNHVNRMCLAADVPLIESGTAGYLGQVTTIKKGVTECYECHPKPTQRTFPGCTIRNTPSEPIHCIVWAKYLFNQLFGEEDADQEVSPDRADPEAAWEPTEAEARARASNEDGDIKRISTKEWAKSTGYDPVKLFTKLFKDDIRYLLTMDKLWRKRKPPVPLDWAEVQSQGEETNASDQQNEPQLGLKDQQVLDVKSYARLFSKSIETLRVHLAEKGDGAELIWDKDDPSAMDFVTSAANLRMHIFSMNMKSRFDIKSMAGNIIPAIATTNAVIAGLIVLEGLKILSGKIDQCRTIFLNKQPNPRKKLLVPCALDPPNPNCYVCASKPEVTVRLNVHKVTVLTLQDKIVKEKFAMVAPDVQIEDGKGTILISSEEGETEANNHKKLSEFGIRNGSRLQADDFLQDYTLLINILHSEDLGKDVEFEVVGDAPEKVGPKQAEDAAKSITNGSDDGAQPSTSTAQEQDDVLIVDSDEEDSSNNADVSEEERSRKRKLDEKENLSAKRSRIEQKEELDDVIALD
T9 sequence (P09923 whole entry): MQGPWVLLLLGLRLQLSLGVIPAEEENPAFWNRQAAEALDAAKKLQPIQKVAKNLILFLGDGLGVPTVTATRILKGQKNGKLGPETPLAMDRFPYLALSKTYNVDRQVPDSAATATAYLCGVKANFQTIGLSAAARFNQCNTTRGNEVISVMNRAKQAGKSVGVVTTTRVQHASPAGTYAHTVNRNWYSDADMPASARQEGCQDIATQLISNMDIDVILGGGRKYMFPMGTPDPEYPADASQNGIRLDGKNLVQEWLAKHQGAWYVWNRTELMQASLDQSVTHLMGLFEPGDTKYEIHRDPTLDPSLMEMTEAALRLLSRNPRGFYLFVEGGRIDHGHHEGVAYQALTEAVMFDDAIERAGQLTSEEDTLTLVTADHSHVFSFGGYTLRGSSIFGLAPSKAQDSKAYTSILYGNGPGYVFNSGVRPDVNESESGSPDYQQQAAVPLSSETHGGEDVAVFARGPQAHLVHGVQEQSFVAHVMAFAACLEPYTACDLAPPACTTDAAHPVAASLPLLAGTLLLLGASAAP
T6 sequence (Q9Y2T6 whole entry): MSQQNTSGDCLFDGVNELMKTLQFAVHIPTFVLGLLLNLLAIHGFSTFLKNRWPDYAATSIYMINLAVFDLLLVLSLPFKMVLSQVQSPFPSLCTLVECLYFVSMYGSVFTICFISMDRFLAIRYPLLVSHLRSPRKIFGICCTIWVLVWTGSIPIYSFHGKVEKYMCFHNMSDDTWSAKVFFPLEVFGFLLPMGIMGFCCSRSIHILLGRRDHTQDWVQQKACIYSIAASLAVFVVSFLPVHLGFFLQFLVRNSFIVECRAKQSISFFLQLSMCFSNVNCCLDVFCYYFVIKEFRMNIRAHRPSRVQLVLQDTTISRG
T5 sequence (P21554 whole entry): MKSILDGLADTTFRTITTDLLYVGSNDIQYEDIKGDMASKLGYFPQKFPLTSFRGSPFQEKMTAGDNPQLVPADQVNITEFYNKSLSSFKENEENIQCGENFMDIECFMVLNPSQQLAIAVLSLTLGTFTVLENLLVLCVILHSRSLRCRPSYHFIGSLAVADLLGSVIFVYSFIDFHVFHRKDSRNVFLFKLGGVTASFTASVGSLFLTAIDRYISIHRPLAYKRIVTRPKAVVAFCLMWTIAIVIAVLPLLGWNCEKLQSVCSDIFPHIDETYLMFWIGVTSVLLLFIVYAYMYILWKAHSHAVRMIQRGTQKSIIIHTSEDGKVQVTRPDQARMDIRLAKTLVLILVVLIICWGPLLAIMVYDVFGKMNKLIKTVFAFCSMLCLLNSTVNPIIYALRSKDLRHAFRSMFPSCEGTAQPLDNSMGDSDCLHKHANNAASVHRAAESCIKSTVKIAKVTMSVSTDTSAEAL
T4 sequence (P34972 whole entry): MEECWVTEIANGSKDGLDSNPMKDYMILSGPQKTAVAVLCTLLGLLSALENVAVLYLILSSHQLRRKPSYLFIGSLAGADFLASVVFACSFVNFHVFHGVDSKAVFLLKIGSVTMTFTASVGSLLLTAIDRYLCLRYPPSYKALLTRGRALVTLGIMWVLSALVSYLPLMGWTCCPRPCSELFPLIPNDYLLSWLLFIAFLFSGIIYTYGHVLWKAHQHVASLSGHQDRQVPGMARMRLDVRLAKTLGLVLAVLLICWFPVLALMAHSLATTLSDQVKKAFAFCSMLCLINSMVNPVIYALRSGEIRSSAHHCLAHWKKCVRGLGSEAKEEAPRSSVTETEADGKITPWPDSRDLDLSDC
Chain of Hexokinase-1 (P19367 whole entry): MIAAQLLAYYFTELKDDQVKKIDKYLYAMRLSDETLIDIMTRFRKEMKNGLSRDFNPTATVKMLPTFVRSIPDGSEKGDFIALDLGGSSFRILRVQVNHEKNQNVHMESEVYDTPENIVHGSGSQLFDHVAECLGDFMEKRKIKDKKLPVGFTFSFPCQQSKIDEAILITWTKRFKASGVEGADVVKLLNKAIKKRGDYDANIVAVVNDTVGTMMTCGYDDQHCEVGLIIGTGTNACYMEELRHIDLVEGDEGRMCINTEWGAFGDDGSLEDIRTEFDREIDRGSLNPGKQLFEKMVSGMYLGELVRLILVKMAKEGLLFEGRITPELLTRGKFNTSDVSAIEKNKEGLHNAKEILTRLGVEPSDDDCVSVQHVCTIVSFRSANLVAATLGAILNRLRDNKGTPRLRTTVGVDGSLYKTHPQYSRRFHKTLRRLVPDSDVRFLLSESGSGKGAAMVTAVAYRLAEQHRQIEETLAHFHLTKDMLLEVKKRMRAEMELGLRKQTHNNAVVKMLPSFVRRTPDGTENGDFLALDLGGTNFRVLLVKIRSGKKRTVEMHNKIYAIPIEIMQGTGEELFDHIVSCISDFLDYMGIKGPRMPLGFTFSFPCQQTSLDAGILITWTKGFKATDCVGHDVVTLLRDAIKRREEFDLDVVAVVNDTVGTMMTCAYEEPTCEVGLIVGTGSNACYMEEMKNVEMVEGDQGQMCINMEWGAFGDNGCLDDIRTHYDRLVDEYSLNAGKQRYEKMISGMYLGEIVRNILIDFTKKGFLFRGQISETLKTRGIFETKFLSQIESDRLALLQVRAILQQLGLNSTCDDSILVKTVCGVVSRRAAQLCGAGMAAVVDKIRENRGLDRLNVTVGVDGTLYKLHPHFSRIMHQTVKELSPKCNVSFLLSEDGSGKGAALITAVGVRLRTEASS

CN(C(=O)COC(=O)/C=C/c1cccc([N+](=O)[O-])c1)C1CCS(=O)(=O)C1 (stereo not given)
IC50 [1]: 32.3 µM (not active)
AC50 [2]: 1.43 µM (active)
IC50 [3]: 3.57 µM (active)
IC50 [4]: 2.25 µM (active)
CC50 [5]: 11.4 µM (active)

COc1ccccc1-n1cnc2c(c1=O)c1nc3ccccc3nc1n2-c1ccc(C)c(C)c1
EC50 [6]: 20.2 µM (active)
EC50 [7]: 11.2 µM (active)
IC50 [8]: 5.24 µM (active)
IC50 [9]: 15.4 µM (active)
EC50 [10]: 59 µM (active)
IC50 [11]: 7.53 µM (active)
EC50 [12]: > 150 µM (not active)
EC50 [13]: 19.2 µM (active)

Cc1cccn2c(=O)c3cc(C(=O)NC4CCCC4)c(=N)n(C4CCCC4)c3nc12
IC50 [14]: > 32 µM (inactive)
IC50 [15]: > 32 µM (inactive)
EC50 [16]: > 32 µM (inactive)
IC50 [17]: 1.24 µM (active)
IC50 [18]: 0.965 µM (active)
IC50 [19]: > 32 µM (inactive)
EC50 [20]: > 32 µM (inactive)
EC50 [21]: > 32 µM (inactive)

O=C(Oc1ccc(Cl)c2cccnc12)c1ccco1
EC50 [7]: 3.93 µM (active)
IC50 [22]: 21.6 µM (active)
EC50 [10]: 11.6 µM (active)

COc1cccc(-c2nc(CS(=O)(=O)CC(=O)Nc3cc(OC)ccc3OC)c(C)o2)c1
EC50 [23]: > 100 µM (inactive)
IC50 [24]: > 100 µM (inactive)

Cn1c(-c2ccccc2)c(C(=O)CC#N)c2ccccc21
EC50 [25]: 39.2 µM (inactive)
EC50 [26]: 32 µM (inactive)

COc1ccc2[nH]c(=O)c(CN(Cc3ccco3)C(c3nnnn3Cc3ccccc3)C(C)C)cc2c1 (stereo not given)
IC50 [27]: > 100 µM (active)
EC50 [28]: > 100 µM (inactive)
